These results are taken from PubChem BioAssay (NCI).

The structures appear in SMILES notation.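 Tested at 5 concentrations; 48 h exposure; 96-well plates; endpoints linearly interpolated, else capped at highest concentration. TGI: concentration producing complete growth inhibition.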

One assay has as its system MOLT-4 leukemia. The assay is described as follows: NCI-60 cell line screen, 48 h.
Turning to `COc1ccc(Nc2c(C#N)c3n(c4ccccc24)c2ccccc2[n+]3C)cc1OC`, the TGI is over 29.5 µM.

The subject of a further assay is NCI-H226 lung. The assay is described as follows: NCI-60 cell line screen, 48 h.
As for `O=C(/C(=C(/Br)I)c1ccccc1)c1ccccc1`, the TGI was found to be 40.4 µM.

`COc1ncc(C=C(C#N)C#N)c(OC)n1` showed a TGI of over 100 µM.

Consider `COc1ccc(Nc2c(C#N)c3n(c4ccccc24)c2ccccc2[n+]3C)cc1OC`, for which the TGI stood at 10.4 µM.

In the next assay the test system is NCI-H23 lung. The assay is described as follows: NCI-60 cell line screen, 48 h.
For the molecule `CC(=O)OCC1OC(N2C(=O)/C(=C\c3ccc(Cl)cc3)C(N)=Nc3ccccc32)C(OC(C)=O)C(OC(C)=O)C1OC(C)=O` (stereo unspecified), the TGI was determined as 68.7 µM.

In turn, `O=C(/C(=C(/Br)I)c1ccccc1)c1ccccc1` displayed a TGI of over 100 µM.

Take `COc1ncc(C=C(C#N)C#N)c(OC)n1`: the TGI is over 100 µM.

On to `COc1ccc(Nc2c(C#N)c3n(c4ccccc24)c2ccccc2[n+]3C)cc1OC`, for which the TGI is 19.3 µM.

The test system of the next assay is NCI-H460 lung. The assay is described as follows: NCI-60 cell line screen, 48 h.
`CC(=O)OCC1OC(N2C(=O)/C(=C\c3ccc(Cl)cc3)C(N)=Nc3ccccc32)C(OC(C)=O)C(OC(C)=O)C1OC(C)=O` (stereo unspecified) displayed a TGI of over 100 µM.

`O=C(/C(=C(/Br)I)c1ccccc1)c1ccccc1`: the TGI turned out to be 37.2 µM.

As for `COc1ncc(C=C(C#N)C#N)c(OC)n1`, the TGI is over 100 µM.

The molecule `COc1ccc(Nc2c(C#N)c3n(c4ccccc24)c2ccccc2[n+]3C)cc1OC` came in with a TGI of 6.46 µM.

The next assay has as its system NCI-H522 lung. The assay is described as follows: NCI-60 cell line screen, 48 h.
Molecule `COc1ncc(C=C(C#N)C#N)c(OC)n1` returned a TGI of 45.4 µM.

`COc1ccc(Nc2c(C#N)c3n(c4ccccc24)c2ccccc2[n+]3C)cc1OC` returned a TGI of 16 µM.

A further assay concerns NCI/ADR-RES ovarian. The assay is described as follows: NCI-60 cell line screen, 48 h.
In turn, `CC(=O)OCC1OC(N2C(=O)/C(=C\c3ccc(Cl)cc3)C(N)=Nc3ccccc32)C(OC(C)=O)C(OC(C)=O)C1OC(C)=O` (stereo unspecified) had a TGI of over 100 µM.

`O=C(/C(=C(/Br)I)c1ccccc1)c1ccccc1` yielded a TGI of 37.4 µM.

Molecule `COc1ncc(C=C(C#N)C#N)c(OC)n1` had a TGI of 64.1 µM.

Consider `COc1ccc(Nc2c(C#N)c3n(c4ccccc24)c2ccccc2[n+]3C)cc1OC`, for which the TGI stood at 17.6 µM.

In a further assay the test system is OVCAR-3 ovarian. The assay is described as follows: NCI-60 cell line screen, 48 h.
Consider `CC(=O)OCC1OC(N2C(=O)/C(=C\c3ccc(Cl)cc3)C(N)=Nc3ccccc32)C(OC(C)=O)C(OC(C)=O)C1OC(C)=O` (stereo unspecified), for which the TGI was determined as 32.6 µM.

In the case of `O=C(/C(=C(/Br)I)c1ccccc1)c1ccccc1`, the TGI was 42 µM.

`COc1ncc(C=C(C#N)C#N)c(OC)n1` gave a TGI of over 100 µM.

Molecule `COc1ccc(Nc2c(C#N)c3n(c4ccccc24)c2ccccc2[n+]3C)cc1OC` came in with a TGI of 11 µM.

The next assay concerns OVCAR-4 ovarian. The assay is described as follows: NCI-60 cell line screen, 48 h.
`CC(=O)OCC1OC(N2C(=O)/C(=C\c3ccc(Cl)cc3)C(N)=Nc3ccccc32)C(OC(C)=O)C(OC(C)=O)C1OC(C)=O` (stereo unspecified) gave a TGI of 66.4 µM.

In the case of `COc1ncc(C=C(C#N)C#N)c(OC)n1`, the TGI is over 100 µM.

`COc1ccc(Nc2c(C#N)c3n(c4ccccc24)c2ccccc2[n+]3C)cc1OC` had a TGI of 32.5 µM.

For another assay, the system named is OVCAR-5 ovarian. The assay is described as follows: NCI-60 cell line screen, 48 h.
The molecule `CC(=O)OCC1OC(N2C(=O)/C(=C\c3ccc(Cl)cc3)C(N)=Nc3ccccc32)C(OC(C)=O)C(OC(C)=O)C1OC(C)=O` (stereo unspecified) came in with a TGI of over 100 µM.

Consider `O=C(/C(=C(/Br)I)c1ccccc1)c1ccccc1`, for which the TGI was over 100 µM.

`COc1ncc(C=C(C#N)C#N)c(OC)n1` showed a TGI of over 100 µM.

On to `COc1ccc(Nc2c(C#N)c3n(c4ccccc24)c2ccccc2[n+]3C)cc1OC`, for which the TGI is 10.4 µM.

A further assay relates to OVCAR-8 ovarian. The assay is described as follows: NCI-60 cell line screen, 48 h.
In turn, `CC(=O)OCC1OC(N2C(=O)/C(=C\c3ccc(Cl)cc3)C(N)=Nc3ccccc32)C(OC(C)=O)C(OC(C)=O)C1OC(C)=O` (stereo unspecified) yielded a TGI of 26.7 µM.

Molecule `O=C(/C(=C(/Br)I)c1ccccc1)c1ccccc1` returned a TGI of 48.3 µM.

Molecule `COc1ncc(C=C(C#N)C#N)c(OC)n1` came in with a TGI of 62 µM.

For `COc1ccc(Nc2c(C#N)c3n(c4ccccc24)c2ccccc2[n+]3C)cc1OC`, the TGI stood at 18.5 µM.

A further assay has as its system PC-3 prostate. The assay is described as follows: NCI-60 cell line screen, 48 h.
With `CC(=O)OCC1OC(N2C(=O)/C(=C\c3ccc(Cl)cc3)C(N)=Nc3ccccc32)C(OC(C)=O)C(OC(C)=O)C1OC(C)=O` (stereo unspecified), the TGI stood at 59.8 µM.

For `O=C(/C(=C(/Br)I)c1ccccc1)c1ccccc1`, the TGI was over 100 µM.

On to `COc1ncc(C=C(C#N)C#N)c(OC)n1`, for which the TGI is over 100 µM.

Take `COc1ccc(Nc2c(C#N)c3n(c4ccccc24)c2ccccc2[n+]3C)cc1OC`: the TGI was 8.38 µM.

Another assay deals with RPMI-8226 leukemia. The assay is described as follows: NCI-60 cell line screen, 48 h.
The molecule `CC(=O)OCC1OC(N2C(=O)/C(=C\c3ccc(Cl)cc3)C(N)=Nc3ccccc32)C(OC(C)=O)C(OC(C)=O)C1OC(C)=O` (stereo unspecified) gave a TGI of 13.8 µM.

For the molecule `O=C(/C(=C(/Br)I)c1ccccc1)c1ccccc1`, the TGI stood at 47.2 µM.

Molecule `COc1ncc(C=C(C#N)C#N)c(OC)n1` showed a TGI of 86 µM.

For the molecule `COc1ccc(Nc2c(C#N)c3n(c4ccccc24)c2ccccc2[n+]3C)cc1OC`, the TGI was over 25.1 µM.

The next assay relates to RXF 393 renal. The assay is described as follows: NCI-60 cell line screen, 48 h.
For `CC(=O)OCC1OC(N2C(=O)/C(=C\c3ccc(Cl)cc3)C(N)=Nc3ccccc32)C(OC(C)=O)C(OC(C)=O)C1OC(C)=O` (stereo unspecified), the TGI is 27.9 µM.

In turn, `O=C(/C(=C(/Br)I)c1ccccc1)c1ccccc1` gave a TGI of 31.6 µM.

With `COc1ncc(C=C(C#N)C#N)c(OC)n1`, the TGI was over 100 µM.

As to `COc1ccc(Nc2c(C#N)c3n(c4ccccc24)c2ccccc2[n+]3C)cc1OC`, the TGI came out at 9.46 µM.

For a further assay, the system named is SF-268 CNS. The assay is described as follows: NCI-60 cell line screen, 48 h.
In turn, `CC(=O)OCC1OC(N2C(=O)/C(=C\c3ccc(Cl)cc3)C(N)=Nc3ccccc32)C(OC(C)=O)C(OC(C)=O)C1OC(C)=O` (stereo unspecified) gave a TGI of 42 µM.

Consider `O=C(/C(=C(/Br)I)c1ccccc1)c1ccccc1`, for which the TGI amounted to 48.5 µM.

As for `COc1ncc(C=C(C#N)C#N)c(OC)n1`, the TGI is over 100 µM.

Molecule `COc1ccc(Nc2c(C#N)c3n(c4ccccc24)c2ccccc2[n+]3C)cc1OC` gave a TGI of 8.25 µM.

The test system of a further assay is SF-295 CNS. The assay is described as follows: NCI-60 cell line screen, 48 h.
`CC(=O)OCC1OC(N2C(=O)/C(=C\c3ccc(Cl)cc3)C(N)=Nc3ccccc32)C(OC(C)=O)C(OC(C)=O)C1OC(C)=O` (stereo unspecified): the TGI was over 100 µM.

`O=C(/C(=C(/Br)I)c1ccccc1)c1ccccc1` yielded a TGI of 69.6 µM.

The molecule `COc1ncc(C=C(C#N)C#N)c(OC)n1` returned a TGI of over 100 µM.

Regarding `COc1ccc(Nc2c(C#N)c3n(c4ccccc24)c2ccccc2[n+]3C)cc1OC`, the TGI was determined as 11 µM.

A further assay relates to SF-539 CNS. The assay is described as follows: NCI-60 cell line screen, 48 h.
`CC(=O)OCC1OC(N2C(=O)/C(=C\c3ccc(Cl)cc3)C(N)=Nc3ccccc32)C(OC(C)=O)C(OC(C)=O)C1OC(C)=O` (stereo unspecified): the TGI is 40.8 µM.

`O=C(/C(=C(/Br)I)c1ccccc1)c1ccccc1` registered a TGI of 37.7 µM.

In turn, `COc1ncc(C=C(C#N)C#N)c(OC)n1` came in with a TGI of over 100 µM.
